Assay results: patent publication US5912405A, “Enhancers such as acetosyringone” (Novo Nordisk A/S, priority 1994, dated 1999)

Key:
Format in all cases: biochemical
[1] = target: T1, Coprinus cinereus laccase (Coprinopsis cinerea, UniProt Q9Y780); assay: Bleaching of Direct Blue 1 using Coprinus cinereus laccase with/without enhancing agents at pH 5.5-8.5; settings: C. cinereus laccase 1 mg/l, 10 μM enhancing agent, 30° C.
T1 sequence (Q9Y780 19-539): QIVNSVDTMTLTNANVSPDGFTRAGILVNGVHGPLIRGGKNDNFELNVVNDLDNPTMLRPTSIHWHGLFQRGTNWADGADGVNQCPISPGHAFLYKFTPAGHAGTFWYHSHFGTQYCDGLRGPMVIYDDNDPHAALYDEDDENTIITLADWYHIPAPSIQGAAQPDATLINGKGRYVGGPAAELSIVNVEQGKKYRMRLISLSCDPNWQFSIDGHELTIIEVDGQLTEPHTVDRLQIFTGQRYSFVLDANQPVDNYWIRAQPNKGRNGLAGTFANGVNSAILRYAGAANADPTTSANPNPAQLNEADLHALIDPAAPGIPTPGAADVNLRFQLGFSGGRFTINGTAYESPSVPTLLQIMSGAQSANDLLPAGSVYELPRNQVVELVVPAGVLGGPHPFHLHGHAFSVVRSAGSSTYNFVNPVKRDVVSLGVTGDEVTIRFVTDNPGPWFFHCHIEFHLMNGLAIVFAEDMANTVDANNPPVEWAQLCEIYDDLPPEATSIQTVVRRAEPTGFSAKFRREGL
Method: Bleaching of the dye Direct Blue 1 at various pH values was conducted using Coprinus cinereus laccase and one of the following enhancing agents:
The laccase was obtained in the following way: Coprinus cinereus (IFO 30116--freely available to the public from Institute of Fermentation, Osaka (IFO) under the indicated deposit number) was inoculated from a PDA agar slant (PDA: 39 g/l potato dextrose agar) into a 100 ml shake flask containing medium A (Medium A is described in Example 3). The culture was cultivated for 6 days at 26° C. and 100 rpm. A 10-liter fermentor containing medium A was inoculated with the 100 ml culture broth. The fermentation ran for 6 days at 26° C. and 100 rpm. The culture broth was filtrated and concentrated by ultrafiltration. Further purification was carried out using hydrophobic interaction chromatography followed by anionic exchange chromatography. This process resultated in a preparation with a laccase activity of 3.6 LACU/ml. The estimated purity was >80% on a protein basis.
The bleaching rate of DB1 was determined using the owing conditions: […]
Reagents were mixed in a 1 ml thermostated cuvette at 30° C. and the bleaching was started by addition of the laccase.
The bleaching was followed spectrophotometrically at 610 nm, which is the wavelength of the absorption peak of DB1 with readings every 5 sec. for a period of 5 minutes. The initial bleaching rate was determined from the first linear part of the absorbance curve.

[2] = target: T1, Coprinus cinereus laccase; assay: Bleaching of gradually added Acid Blue 45 with Coprinus cinereus laccase with and without enhancing agent; settings: phosphate/borate buffer pH 10; 35° C.; laccase 10 mg/l; acetosyringone 10 μM
Method: To simulate such a process, however, a magnetically stirred beaker was used as the reaction vessel and dye was added gradually from a stock solution (using a Metrohm 725 dosimat). The solution was monitored spectrophotometrically using a Zeiss multichannel spectrometer (MCS) equipped with a fibre-optics immersion probe.
Stock solutions of acetosyringone was prepared in a suitable water/ethanol mixture. Stock solutions of the anthraquinone dye Acid Blue 45 were made with water.
The laccase was recovered from a 10-liter fermentation of Coprinus cinereus (IFO 30116) as described in Example 4.
The following conditions were used in the experiment:
Medium and pH: […]/50 mM phosphate/borate buffer at pH 10
Acetosyringone (when applicable): 10 μM
Dye addition program: linear addition at a rate of ca 0.34 bs/40 min, referring to the absorbance of Acid Blue 45 at its maximum absorbance wavelength (590 nm for Acid Blue 45).
The following symbols are used: (I): Only dye addition; (II): Dye addition in the presence of Laccase; (III): Dye addition in the presence of Laccase+acetosyringone.

[3] = target: T2, Trametes villosa laccase (Trametes villosa, UniProt Q99044); assay: Bleaching of Direct Blue 1 with Trametes villosa laccase with and without enhancing agents; settings: 10 μM enhancer, 30° C.
T2 construct: made in house; host or cells: Trametes villosa CBS 678.70 (native producer), purified from culture broth
T2 sequence (Q99044 22-520): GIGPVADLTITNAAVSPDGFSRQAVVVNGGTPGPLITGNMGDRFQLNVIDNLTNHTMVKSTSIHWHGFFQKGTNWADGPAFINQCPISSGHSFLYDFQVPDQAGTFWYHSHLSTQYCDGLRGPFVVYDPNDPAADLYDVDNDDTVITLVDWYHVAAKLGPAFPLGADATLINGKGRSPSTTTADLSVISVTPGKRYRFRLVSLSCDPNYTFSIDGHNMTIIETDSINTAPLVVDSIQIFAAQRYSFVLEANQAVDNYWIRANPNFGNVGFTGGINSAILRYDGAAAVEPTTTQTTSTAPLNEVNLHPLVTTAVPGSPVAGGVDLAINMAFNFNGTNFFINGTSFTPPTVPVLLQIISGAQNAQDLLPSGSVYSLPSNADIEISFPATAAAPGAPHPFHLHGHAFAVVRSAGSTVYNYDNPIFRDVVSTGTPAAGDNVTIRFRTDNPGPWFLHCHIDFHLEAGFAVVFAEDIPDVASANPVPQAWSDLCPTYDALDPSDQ
Method: Laccase obtained from Trametes villosa: 800 ml culture broth of Trametes villosa, CBS 678.70, was filtered with filter aid to give a clear filtrate, which was concentrated and washed by ultrafiltration on a membrane with a cut-off of 6-8 kDa. One ml samples of concentrated preparation was applied onto a Q-Sepharose HP column (Pharmacia, Sweden) equilibrated with 0.1 M fosfate pH 7, and the laccase was eluted with a flat NaCl gradient around 0.25 M. Fractions with laccase activity from 10 runs were pooled and concentrated by ultrafiltration to an activity of 500 LACU/ml.
The following conditions were used: […]
Reagents were mixed in a 1 cm thermostated cuvette at 30° C. and the bleaching was started by addition of enzyme.
The bleaching was detected spectrophotometrically at 610 nm, which is the absorption peak of DB1. After 5 sec. bleaching was followed for 4 minutes.
Bleaching of Direct Blue 1 with Trametes villosa laccase, obtained as described above, at pH 5.5 (1.6 mg/l) and pH 7.0 (16 mg/l): […]

[4] = target: T3, Coprinus cinereus peroxidase (CiP) (Coprinopsis cinerea, UniProt P28314); assay: Initial bleaching of Direct Blue 1 with Coprinus cinereus peroxidase and enhancers; settings: 5 μM enhancer, 20 μM H2O2, 30° C.
T3 construct: made in house
T3 sequence (P28314 21-363): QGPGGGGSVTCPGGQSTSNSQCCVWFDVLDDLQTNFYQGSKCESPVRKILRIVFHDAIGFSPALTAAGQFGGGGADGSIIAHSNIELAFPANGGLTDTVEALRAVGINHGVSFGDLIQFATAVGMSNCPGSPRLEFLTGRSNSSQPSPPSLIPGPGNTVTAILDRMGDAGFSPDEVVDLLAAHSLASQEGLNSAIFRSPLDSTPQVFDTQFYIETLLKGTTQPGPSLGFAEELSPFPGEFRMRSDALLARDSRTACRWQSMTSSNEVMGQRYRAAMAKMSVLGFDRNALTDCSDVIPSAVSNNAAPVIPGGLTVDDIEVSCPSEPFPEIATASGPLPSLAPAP
Method: A Coprinus cinereus peroxidase (CiP), obtained as described in WO 9412621 was used.
Dilutions of CiP were made in a solution of 0.15 gram/l of Triton X-405.
The bleaching rate of Direct Blue 1 (DB1) by purified CiP was determined using the following conditions: […]
Reagents were mixed in a thermostated cuvette at 30° C. and the bleaching was started by addition of hydrogen peroxide. The bleaching was detected spectrophotometrically at 610 nm, which is the wavelength of the absorption peak of DB1. Bleaching was followed for 1 minute, and the initial reduction in absorbance, --ΔmAbs/minute, was determined.

Initial bleaching rate of DB1 ([1]; pH 5.5): 28 -ΔmAbs/minute
Initial bleaching rate of DB1 ([1]; pH 7.0): 94 -ΔmAbs/minute
Initial bleaching rate of DB1 ([1]; pH 8.5): 50 -ΔmAbs/minute
Bleaching effect on gradually added Acid Blue 45 (FIG. 1) [2]: enhanced
DB1 bleaching in 4 minutes ([3]; pH 5.5, Trametes villosa laccase 1.6 mg/l): 447 -ΔmAbs/4 min
DB1 bleaching in 4 minutes ([3]; pH 7.0, Trametes villosa laccase 16 mg/l): 242 -ΔmAbs/4 min
Initial Bleaching of Direct Blue 1 with CiP ([4]; pH 8.5, 0.08 mg/l CiP): 239 -ΔmAbs/minute
Initial Bleaching of Direct Blue 1 with CiP ([4]; pH 10.5, 0.16 mg/l CiP): 1 -ΔmAbs/minute
Structure (SMILES): COc1cc(C(C)=O)cc(OC)c1O [acetosyringone]
